This note sets out measurements from patent US9676820B2, “Method for inhibiting proliferation of high LIX1L-expressing tumor cell, and tumor cell proliferation-inhibiting peptide” (National University Corporation Hamamatsu University School …, priority 2013, dated 2017).

Holding throughout (format): cell-based
For experiment [1], the system named is HL-60 strain. In words: Viable cell counts (Trypan blue staining), HL-60 strain. Conditions: 5 μM peptide, after 72 hours, vs untreated. Here is the method: (§1) Specifically, cells plated such that the density thereof became 1×10^4 cells/3.5 cm well for one plate (6 wells/plate) for each cell strain were cultured for one night in a culture solution having the same composition as those of the culture solutions described in the reference examples. After culturing of 1 well out of the 6 wells was completed, Trypan blue staining was performed on the 1 well, and viable cell counts were counted. The remaining 5 wells were cultured after exchanging the culture solution with a liquid mixture of a Lipofectamine (registered trademark) reagent (12.5 μL/well) and a culture solution (2 mL/well) of which the shRNA concentration became 2.5 μg/well. Then, Trypan blue staining was performed on 1 well 24 hours after the exchange of a culture medium, 1 well 48 hours after the exchange of a culture medium, and the remaining 1 well 72 hours after the exchange of a culture medium, and the viable cell counts were counted. As a control, the viable cell counts were measured (untreated) by performing the culturing similarly to the above except that a culture medium was exchanged with a culture solution to which no shRNA was added.
(§2) Specifically, the viable cell counts were measured after culturing the cells similarly to Example 1 except that a 5 μM culture solution containing a control peptide, a peptide 1, or a peptide 2 was used instead of the culture solution (2 mL/well) of which the shRNA concentration was 2.5 μg/well. The viable cell counts were measured (untreated) by performing the culturing similarly to Example 1 using a culture solution containing no peptide 2, as a control.

The subject of experiment [2] is K562 strain. In words: Viable cell counts (Trypan blue staining), K562 strain. The conditions noted are these: 5 μM peptide, after 72 hours, vs untreated. Here is the method:
as §1, §2

Experiment [3] concerns RPMI8226 strain. As to the kind of experiment: Viable cell counts (Trypan blue staining), RPMI8226 strain. The conditions noted are these: 5 μM peptide, up to 72 hours, vs untreated. Here is the method:
as §1, with “added. […]” for “added.”

Experiment [4] concerns HL-60 strain. As to the kind of experiment: MTT assay, HL-60 strain. Conditions: peptide 0 μM to 100 μM, 72 hours. Here is the method:
(§3) Specifically, first, cells plated in a 96-well microplate such that the density thereof became 5×10^3 cells/well were cultured for one night in a culture solution having the same composition as those in the reference examples. Thereafter, the culture solution was exchanged with 100 μL of a culture solution of which the concentration of peptides is 0 μM to 100 μM for culturing for 72 hours. After the culturing, an MTT-containing PBS solution was added to the culture solution, and the mixture was incubated for 4 hours. Then, formazan which was generated by putting 100 μL of isopropanol (containing 34 (v/v) % of hydrochloric acid) into each of the wells was dissolved. The absorbance of each of the wells of the microplate at 570 nm was measured using a microplate reader. As controls, culturing was performed in the same manner except that no peptide was added to the strains, an MTT assay was performed thereon, and the absorbance at 570 nm was measured (untreated).
(§4) In the method for measuring the viable cell counts, cells were cultured for 3 days similarly to Example 1 except that a 25 μM (10 μM for an HL-60 strain, a K562 strain, and a U937 strain) culture solution containing a control peptide or a peptide 1 was used, and the viable cell counts were measured. As a comparison, culturing was performed similarly to the above using a culture solution containing no peptide, and the viable cell counts were measured (untreated).
(§5) In addition, in the method for performing an MTT assay, cells were cultured for 72 hours similarly to Example 2 except that a peptide to be added to a strain was set to a control peptide or a peptide 1 at 25 μM (10 μM for an HL-60 strain, a K562 strain, and a U937 strain), an MTT assay was performed thereon, and the absorbance at 570 nm was measured. As a comparison, culturing was performed similarly to the above using a culture solution containing no peptide, and the MTT assay was performed thereon (untreated).
On the technique in general: Tetrazolium dyes change colour on reduction, which living cells bring about.

Experiment [5] relates to K562 strain. In words: MTT assay, K562 strain. Conditions: 72 hours. Here is the method:
as §3
(§6) Specifically, the cells were cultured for 72 hours similarly to Example 2 except that a peptide to be added to a cell strain was set to peptide 1, 3, or 4, or a control peptide, an MTT assay was performed thereon, and the absorbance at 570 nm was measured.
as §4, §5
(§7) Specifically, the cells were cultured for 72 hours similarly to Example 2 except that a peptide to be added to a cell was set to a peptide 1, 2, 5, or 6, MTT assays were performed thereon, and the absorbance at 570 nm was measured. As a comparison, culturing was performed similarly to the above using a culture solution containing no peptide, and the MTT assay was performed thereon (untreated).
Specifically, the cells were cultured for 72 hours similarly to Example 2 except that peptides to be added to cell strains were set to peptides 7 to 14, MTT assays were performed thereon, and the absorbance at 570 nm was measured. As a comparison, culturing was performed similarly to the above using a culture solution containing no peptide, and the MTT assay was performed thereon (untreated).
Specifically, the cells were cultured for 72 hours similarly to Example 2 except that a peptide to be added to a cell strain was set to a peptide 15 or 16, an MTT assay was performed thereon, and the absorbance at 570 nm was measured. As a comparison, culturing was performed similarly to the above using a culture solution containing no peptide, and the MTT assay was performed thereon (untreated).

Experiment [6] relates to RPMI8226 strain. As to the kind of experiment: MTT assay, RPMI8226 strain. Conditions: peptide 0 μM to 100 μM, 72 hours. Here is the method: as §3, §6
A further experiment has as its system KATO-III strain. In words: MTT assay, KATO-III strain. Conditions: peptide 0 μM to 100 μM, 72 hours. Here is the method:
as §3

A further experiment deals with OCUM-1 strain. As to the kind of experiment: MTT assay, OCUM-1 strain. Conditions: peptide 0 μM to 100 μM, 72 hours. Here is the method: as §3
The test system of another experiment is 293 FLG. As to the kind of experiment: MTT assay, 293 FLG cells. Conditions: 72 hours, peptide concentrations up to 250 μM. Here is the method:
as §3, with “Thereafter, the culture solution was exchanged with 100 μL of a culture solution of which the concentration of peptides is 0 μM to 100 μM for culturing for 72 hours.” left out
as §4, §5, §7
(§8) Specifically, the cells were cultured for 72 hours similarly to Example 2 except that peptides to be added to cell strains were set to peptides 7 to 14, MTT assays were performed thereon, and the absorbance at 570 nm was measured. […]
(§9) Specifically, the cells were cultured for 72 hours similarly to Example 2 except that a peptide to be added to a cell strain was set to a peptide 15 or 16, an MTT assay was performed thereon, and the absorbance at 570 nm was measured. […]

In the next experiment the test system is 293 FLG/LIX1L. As to the kind of experiment: MTT assay, 293 FLG/LIX1L cells. Conditions: 72 hours, peptide concentrations up to 250 μM. Here is the method:
as §3, with “Thereafter, the culture solution was exchanged with 100 μL of a culture solution of which the concentration of peptides is 0 μM to 100 μM for culturing for 72 hours.” left out
as §4, §5, §7, §8, §9

A further experiment relates to MKN45 strain. As to the kind of experiment: MTT assay, MKN45 strain. The conditions noted are these: 72 hours, peptide concentrations up to 250 μM. Here is the method:
as §3, with “Thereafter, the culture solution was exchanged with 100 μL of a culture solution of which the concentration of peptides is 0 μM to 100 μM for culturing for 72 hours.” left out
as §4, §5, §7, §8, §9

The next experiment deals with NUGC-4 strain. In words: MTT assay, NUGC-4 strain. Conditions: 72 hours, peptide concentrations up to 250 μM. Here is the method:
as §3, with “Thereafter, the culture solution was exchanged with 100 μL of a culture solution of which the concentration of peptides is 0 μM to 100 μM for culturing for 72 hours.” left out
as §4, §5, §7, §8, §9

For the substance “YGRKKRRQRRR-X-CYVTLPGGSC-NH2 (YGRKKRRQRRRXCYVTLPGGSC; ε-aminocaproic acid linker; C-terminal amide; peptide 2)”, the viable cell counts result in the experiment on HL-60 strain [1], in the experiment on K562 strain [2] and in the experiment on RPMI8226 strain [3] was “the same as those in an untreated case” throughout. In addition, the “absorbance at 570 nm (MTT assay), influence on cell proliferation” value in the experiment on HL-60 strain [4], in the experiment on K562 strain [5] (peptide 0 μM to 100 μM), in the experiment on RPMI8226 strain [6], with KATO-III strain and in the experiment on OCUM-1 strain was “no particular change in the absorbance at 570 nm” each time. Besides, the “cell proliferation (MTT assay, absorbance at 570 nm)” value with K562 strain [5] (peptide concentrations up to 250 μM), with 293 FLG, in the experiment with 293 FLG/LIX1L, with MKN45 strain and with NUGC-4 strain was “not inhibited” each time.
